# Experimental data as given in patent US20160340652A1, “CULTURE MEDIUM FOR STEM CELL DIFFERENTIATION” (The USA, as represented by the Secretary, Dept. of Health …, priority 2013, published 2016).
# Key:
# hPSCs = assay: Cardiomyocyte differentiation in monolayer in E8 basal medium, CTNT/NKX2.5 flow cytometry and staining; format: cell-based, human; details: for efficiencies of cardiac differentiation: different WNT inhibitors in the presence of heparin, CTNT FACS, 10 days
# Source text: (§1) Cardiomyocyte differentiation in monolayer: When hPSCs had grown to 80-90% confluent, 2-3 days after plating, the medium was changed from E8 to differentiation basal medium, which contains E8 basal medium (DMEM F-12, L-ascorbic acid, Selenium, Transferrin, and NaHCO3), 1× Chemically Defined Lipid Concentrate (100×, Life Technologies, 11905-031; a commercially-available lipid mixture of Arachidonic Acid, Cholesterol, DL-α-Tocopherol Acetate, Ethyl Alcohol 100%, Linoleic Acid, Linolenic Acid, Myristic Acid, Oleic Acid, Palmitic Acid, Palmitoleic Acid, Pluronic F-68, Stearic Acid, Tween 80™) and 1× Pen Strep (Life Technologies, 15140-122). That day was defined as day 0. CHIR99021 (5 uM, Tocris, 4423) was added into differentiation basal medium at day 0 for 24 hrs. IWP2 (3 uM, Tocris, 3533) was added from day 2 to day 5. Heparin was added into the medium at indicated dosages and timeline. Insulin (20 ug/ml, Sigma, 19278) was added into differentiation basal medium to maintain cardiomyocytes from day 7 onward. The medium was changed daily until day 7, and then changed every 2-3 days from day 7 onward. The growth factors, inhibitors, and enzymes used in culture were: Activin A (10 ng/ml, R&D, 338-AC/CF), BMP4 (10 ng/ml, R&D, 314-BP/CF), FGF2 (100 ng/ml, Peprotech, 100-18B), TGFβ1 (1.74 ng/ml, R&D, 240-B/CF), Dorsomorphin (3 μM, Stemgent, 04-0024), LDN-193189 (0.1 μM, Stemgent, 04-0074), PD0325901 (1 μM, Stemgent, 04-0008), SB431542 (3 μM, Selleckchem, s1067), Heparin (Sigma, H3149), Heparinase I (New England Biolabs, P0735S).
# Immunofluorecence staining: Cells cultured in monolayer were fixed in 2% PFA for 10 minutes at room temperature, washed with PBS and permeabilized with 0.2% Triton X-100/PBS for 3 minutes. After successive washes in PBS, the cells were blocked in 10 mg/ml BSA for 30 minutes and incubated with primary antibody for 1 hour at room temperature. Cells were then washed 3 times with PBS for 5 minutes and incubated with secondary antibodies (Alexa 488 or 594-conjugated) for 1 hour. DAPI was applied for nuclei staining. The following primary antibodies were used for immunofluorescence: alpha actinin (mouse, 1:1000, A7811, Sigma), CTNI (cardiac troponin I, rabbit, 1:200, sc-15368, Santa Cruz), CTNT (cardiac troponin T, mouse, CT3, 1:1000, DSHB), Desmin (mouse, 1:100, M0760, DaKo) NKX2.5 (rabbit, ab35842; 1:200, Abcam).
# Flow cytometry assay: Cells differentiated for 10 days in monolayer were dissociated with TrypLE (Invitrogen) for 5 minutes. Single cells were washed off and suspended by DMEM/10% FBS followed by centrifugation. The pellets were washed by PBS once and fixed by 2% PFA for 5 minutes. After washing with PBS and centrifuging, permeabilization was performed by 0.3% Triton X-100 for 3 minutes. The cells were centrifuged and re-suspended with 1% BSA to block unspecific binding of antibody, followed by incubation with primary antibodies (diluted in 1% BSA) for 1 hour. After washed, the cells were incubated with second antibodies conjugated with FITC or PE (Invitrogen, 1:1000 diluted in PBS) for 30 minutes. The cells were washed once and suspended in PBS for the flow cytometry assay.
# The inventors developed an E8 basal medium (consisting of E8 media without NaHCO3, insulin, bFGF, or TGFβ; i.e., containing DMEM/F-12, L-ascorbic acid, selenium, and transferrin). This E8 basal medium was used in a differentiation protocol for human H1 ESCs with initial WNT activation (using GSK3β inhibitor, CHIR99021) applied to the cells in culture at days 0-1 (i.e., days following initiation of the stem cell differentiation protocol; day 0 is the day on which the stem cell differentiation protocol begins when the previously plated cells reach at least 75% confluence and the specific cell culture media are applied to the cells to being the cardiomyocyte differentiation protocol, day 1 is the next day in which specific media may be applied to the cells, and day 2 is the following day, etc.). […]
# [1] = test system: Brachyury (T), Wnt3A, Axin2, KDR, GATA4; assay: Real-time PCR of stage-specific marker expression during cardiac differentiation; format: cell-based, human
# Method: Real-time PCR: RNA was purified using TRI Reagent™ Solution according to Ambion's protocol. Residual DNA was removed using the TURBO DNA-Free™ kit. Reverse transcription was carried out with Maxima H Minus Reverse Transcriptase (Thermo Scientific) primed with Poly N15-mer (Eurofins) with the recommended protocol. Prior to PCR, RNA template was removed with addition of Ambion Ribonuclease H from E. coli. Real-time PCR was performed on the BIO-RAD CFX96 using SsoAdvanced™ Universal SYBR® Green Supermix. PCR primers were listed in the supplementary table.
# To investigate the function of heparin in mesoderm determination and cardiac specification, stage-specific marker expression levels were measured by qPCR (FIG. 33).
# H1 ESCs = assay: Live cell number yield after 10 days differentiation; format: cell-based, human; details: WNT inhibitor in the presence of heparin
# Source text: as §1, with “The growth factors, inhibitors, and enzymes used in culture were: Activin A (10 ng/ml, R&D, 338-AC/CF), BMP4 (10 ng/ml, R&D, 314-BP/CF), FGF2 (100 ng/ml, Peprotech, 100-18B), TGFβ1 (1.74 ng/ml, R&D, 240-B/CF), Dorsomorphin (3 μM, Stemgent, 04-0024), LDN-193189 (0.1 μM, Stemgent, 04-0074), PD0325901 (1 μM, Stemgent, 04-0008), SB431542 (3 μM, Selleckchem, s1067), Heparin (Sigma, H3149), Heparinase I (New England Biolabs, P0735S).” left out
# Human ESCs = assay: High density survival screening of human ESCs in E8 medium with additives (Alkaline Phosphatase staining); format: cell-based; details: for cell death and differentiation at high density: E8 medium supplemented, 5 days after initial confluence; for pluripotent stem cell survival and differentiation efficiency: E8 medium, cells near confluence, additives added, AP staining
# Method: H1 hESCs were cultured in E8 media to 60% confluence, and then continually cultured for 2 days in E8 media with indiated additives. Alkaline Phosphatase (AP) staining was performed to show the pluripotent stem cells. Dark staining represents the survival of hESC colonies.
# Additives are indicated (glycogen, glycogen+lipid+heparin). H1 and H9 hESCs were cultured in E8 media to 60% confluence, and then continually cultured for 2 days in E8 media with indicated additives. Two parallel experiments were performed in incubators in either good or bad condition.
# FIGS. 6a and 6b show cell proliferation and spontaneous differentiation at high density with trehalose and CM-dextran. In FIG. 6a, HI hESCs were cultured in E8 media to >90 confluence, and then continually cultured for 5 days in E8 media with indicated additives. Phase contrast images show the survival rates of the cells. Note that most of the cells in control conditions died and few cells regrew, while Trehalose and CM-Dextran treated cells survived in high confluence but some of them started to differentiate. In FIG. 6b, qPCR of pluripotent and differentiated genes expression is shown for the samples in FIG. 6a.
# First, initial screening assays were carried out with different additives. In this assay, human embryonic stem cells (ESCs) are grown to near confluence in E8 medium. The additives in the set of experiments described herein are selected from trehalose, CM-Dextran, lipid mix, heparin, glycogen and albumin. Cells that were untreated served as the controls. The protocol is set forth below:
# 1. Human ESCs were expanded with EDTA dissociation at 1:6 ratio.
# 2. E8 medium was changed every day.
# 3. After 2-3 days, when cell density reached around 70-80% confluency.
# 4. Change medium, and different treatments were applied to the cells in addition to fresh E8 every day.
# 5. Cells in E8 started to die 1-2 days after they reached 100% confluency.
# 6. Plates were stained with Alkaline Phosphatase staining (APS) kit (Vector Lab) to determine pluripotency maintenance. After a few days, the plates are stained with Alkaline Phosphatase Staining (APS). The cell viability reagent PrestoBlue can also be used to measure live cells. […]
# [2] = test system: cardiomyocyte differentiation; assay: Cell death/survival during cardiomyocyte differentiation in supplemented E8 medium (Test 1 and Test 3); format: cell-based, human; details: Test 1 and Test 3, cell survival at day 3
# Source text: Cell survival at day 3 is shown.
# NKX2-5, TBX5 and TNNT2 = assay: qPCR of cardiac markers after Test 3 protocol differentiation; format: cell-based, human
# Method: Expression of Nkx.2, TBX5 and cTnT are shown as determined by qPCR. qPCR was performed assess relative mRNA expression of cardiac markers for cells following Test3 protocol differentiation.
# Gene expression during differentiation was examined, and it was shown that the new factors affected specific gene expression during differentiation.
Molecule,efficiencies of cardiac differentiation (hPSCs),cell death and differentiation at high density (Human ESCs),pluripotent stem cell survival and differentiation efficiency (Human ESCs),cell death during differentiation [2],"cardiomyocyte differentiation by mRNA expression of NKX2-5, TBX5 and TNNT2 (NKX2-5, TBX5 and TNNT2)",also measured
Cc1ccc2nc(NC(=O)CSc3nc4c(c(=O)n3-c3ccccc3)SCC4)sc2c1 [IWP2],comparable efficiencies of cardiac differentiation,,,,,"cardiomyocyte purity at day 10 (hPSCs; H1 ESCs, CHIR99021 days 0-1, IWP2 days 2-5, no heparin, no albumin or B27): ≤ 50%; cardiac differentiation (CTNT and NKX2.5 staining) (hPSCs; increasing IWP2 dosage, without heparin): did not significantly enhance cardiac differentiation; Axin2 expression at day 5 ([1]; all 5 hPSC lines): inhibited; expression of cardiac progenitor marker GATA4 ([1]; qPCR, day 5, 7 different human PSC lines): promoted"
O=C(Nc1cccc2cccnc12)c1ccc(N2C(=O)[C@@H]3[C@H](C2=O)[C@@H]2C=C[C@H]3C2)cc1 [IWR1],comparable efficiencies of cardiac differentiation,,,,,cell death and cardiomyocyte yield (H1 ESCs): caused more cell death and yielded fewer cardiomyocytes
Oc1nc(-c2ccc(C(F)(F)F)cc2)nc2c1CSCC2 [XAV939],comparable efficiencies of cardiac differentiation,,,,,
"OC[C@H]1O[C@H](O[C@H]2O[C@H](CO)[C@@H](O)[C@H](O)[C@H]2O)[C@H](O)[C@@H](O)[C@@H]1O [trehalose, Trehalose]",,"little cell death, and the cells differentiated",enhanced pluripotent stem cell survival and differentiation efficiency,suppressed cell death during differentiation,promoted cardiomyocyte differentiation,
CM-dextran,,"little cell death, and the cells differentiated",enhanced pluripotent stem cell survival and differentiation efficiency,suppressed cell death during differentiation,promoted cardiomyocyte differentiation,
"heparinase I: bacteroides enzyme that selectively cleaves the glycosidic linkage between hexosamines and uronic acids in heparin (protein, UniProt Q05819 22-384, looked up) Heparin lyase I: QQKKSGNIPYRVNVQADSAKQKAIIDNKWVAVGINKPYALQYDDKLRFNGKPSYRFELKAEDNSLEGYAAGETKGRTELSYSYATTNDFKKFPPSVYQNAQKLKTVYHYGKGICEQGSSRSYTFSVYIPSSFPDNATTIFAQWHGAPSRTLVATPEGEIKTLSIEEFLALYDRMIFKKNIAHDKVEKKDKDGKITYVAGKPNGWKVEQGGYPTLAFGFSKGYFYIKANSDRQWLTDKADRNNANPENSEVMKPYSSEYKTSTIAYKMPFAQFPKDCWITFDVAIDWTKYGKEANTILKPGKLDVMMTYTKNKKPQKAHIVNQQEILIGRNDDDGYYFKFGIYRVGNSTVPVTYNLSGYSETAR",,,,,,effect of heparin in the promotion of cardiac differentiation (hPSCs; co-treatment with heparinase I and heparin): dramatically blocked; cardiac cell differentiation seen with IWP2 treatment (hPSCs; heparinase I with IWP2): significantly suppressed
